Assay results reported in patent publication US5548062A, “Tumor cell invasion-inhibiting peptides, peptide complexes and cancer metastasis inhibitors” (Asahi Glass Company Ltd., priority 1990, dated 1996).
Where a SMILES comes first, the peptide text is derived from it.

Assay: Kinetics in blood after injection into the tail vein
Design: species or system C57BL/6j mouse
Details: female, C57BL/6j, mouse, in vivo, iv
Method: The kinetics in blood of the peptide of the formula (14) prepared in the Reference Example and the [^14 C]-labeled complex prepared in Example D-2 were studied.
To the vein of the tail of a C57BL/6j mouse (8 weeks old, female), 1,000 μg/0.2 cm^3 of the peptide or 100 μg/0.2 cm^3 of the labeled complex was injected. Upon expiration of a predetermined period of time, the carotid artery was cut for blood sampling. To quantitatively analyze the amount of the peptide in blood, to 1 cm^3 of the sampled blood, the same amount of 10% trifluoroacetic acid was added, followed by centrifugal separation at a speed of 10,000 rpm to precipitate the denatured protein, and the supernatant was recovered. […] To the obtained freeze-dried product, 0.2 cm^3 of distilled water was added, and the quantitative analysis was conducted by reversed phase (C18) chromatography. The quantitative analysis was conducted based on the quantitative curve obtained with a standard product (the peptide prepared in the Reference Example and quantitatively analyzed by an amino acid analysis).
To quantitatively analyze the [^14 C]-labeled complex, 2.5 cm^3 of a tissue solubilizer (NCA, Amersham Company) was added to 0.2 cm^3 of the sampled blood, followed by heating at 50° C. for two hours to solubilize the blood. […]

SMILES: C[C@H](N)C(=O)N[C@@H](CCC(=O)O)C(=O)N[C@@H](CC(=O)O)C(=O)NCC(=O)N[C@@H](CC(=O)O)C(=O)N[C@@H](C)C(=O)N[C@@H](CCCCN)C(=O)N[C@H](C(=O)N[C@@H](CC(=O)O)C(=O)N[C@@H](CCC(N)=O)C(=O)N[C@@H](C)C(=O)N[C@@H](CCC(=O)O)C(=O)N[C@@H](CCCCN)C(=O)N[C@@H](C)C(=O)N[C@@H](CCC(=O)O)C(=O)NCC(=O)N[C@@H](C)C(=O)NCC(=O)N[C@@H](CC(=O)O)C(=O)N[C@@H](C)C(=O)N[C@@H](CCCCN)C(=O)O)[C@@H](C)O [peptide of the formula (14), Ala-Glu-Asp-Gly-Asp-Ala-Lys-Thr-Asp-Glx-Ala-Glx-Lys-Ala-Glu-Gly-Ala-Gly-As p-Ala-Lys] (H-AEDGDAKTDQAEKAEGAGDAK-OH)
- half-life: ~20 s
